Entries after “also recorded” stand apart in the source; their conditions may differ. Read-outs that look alike come from different tables or passages of the source. Marks after values point to notes of the source that are not given here.
What was measured:
[1] = molecular target: ryanodine receptor, isoform 1 (RyR1) (Oncorhynchus mykiss, UniProt A0A8C7UX14); type: binding, rainbow trout (Oncorhynchus mykiss); conditions: for Comparison (Ratio): Fish RPF compared to Mammal RPF; for Log-Probit Slope / Bmax / Bmax (pmol/mg): Mean ± SEM; for Bmax / Bmax (pmol/mg): maximal level of [3H]Ry binding at saturation; for Fish RPF: relative potency factor, Q20 relative to PCB 95; for activity toward RyR1: rainbow trout preparation
[2] = tested on: RyR1; assay: Mammalian RyR1 [3H]ryanodine binding; parameters: species or system rabbit; conditions: relative potency factor, EC2X relative to PCB 95; from literature EC2X values
[3] = tested on: RyR1; conditions: estimated from QSAR; ref Rayne and Forest 2010; cited from earlier work
[4] = tested on: RyR1; conditions: ref Pessah et al. 2006; cited from earlier work
[5] = linear regression of log-probit plot, (−) inactive
[6] = sigmoidal fit of enhanced [3H]Ry binding, PCB 0–20 μM, (−) inactive

Sequence of ryanodine receptor, isoform 1 (RyR1) (A0A8C7UX14 1-5031): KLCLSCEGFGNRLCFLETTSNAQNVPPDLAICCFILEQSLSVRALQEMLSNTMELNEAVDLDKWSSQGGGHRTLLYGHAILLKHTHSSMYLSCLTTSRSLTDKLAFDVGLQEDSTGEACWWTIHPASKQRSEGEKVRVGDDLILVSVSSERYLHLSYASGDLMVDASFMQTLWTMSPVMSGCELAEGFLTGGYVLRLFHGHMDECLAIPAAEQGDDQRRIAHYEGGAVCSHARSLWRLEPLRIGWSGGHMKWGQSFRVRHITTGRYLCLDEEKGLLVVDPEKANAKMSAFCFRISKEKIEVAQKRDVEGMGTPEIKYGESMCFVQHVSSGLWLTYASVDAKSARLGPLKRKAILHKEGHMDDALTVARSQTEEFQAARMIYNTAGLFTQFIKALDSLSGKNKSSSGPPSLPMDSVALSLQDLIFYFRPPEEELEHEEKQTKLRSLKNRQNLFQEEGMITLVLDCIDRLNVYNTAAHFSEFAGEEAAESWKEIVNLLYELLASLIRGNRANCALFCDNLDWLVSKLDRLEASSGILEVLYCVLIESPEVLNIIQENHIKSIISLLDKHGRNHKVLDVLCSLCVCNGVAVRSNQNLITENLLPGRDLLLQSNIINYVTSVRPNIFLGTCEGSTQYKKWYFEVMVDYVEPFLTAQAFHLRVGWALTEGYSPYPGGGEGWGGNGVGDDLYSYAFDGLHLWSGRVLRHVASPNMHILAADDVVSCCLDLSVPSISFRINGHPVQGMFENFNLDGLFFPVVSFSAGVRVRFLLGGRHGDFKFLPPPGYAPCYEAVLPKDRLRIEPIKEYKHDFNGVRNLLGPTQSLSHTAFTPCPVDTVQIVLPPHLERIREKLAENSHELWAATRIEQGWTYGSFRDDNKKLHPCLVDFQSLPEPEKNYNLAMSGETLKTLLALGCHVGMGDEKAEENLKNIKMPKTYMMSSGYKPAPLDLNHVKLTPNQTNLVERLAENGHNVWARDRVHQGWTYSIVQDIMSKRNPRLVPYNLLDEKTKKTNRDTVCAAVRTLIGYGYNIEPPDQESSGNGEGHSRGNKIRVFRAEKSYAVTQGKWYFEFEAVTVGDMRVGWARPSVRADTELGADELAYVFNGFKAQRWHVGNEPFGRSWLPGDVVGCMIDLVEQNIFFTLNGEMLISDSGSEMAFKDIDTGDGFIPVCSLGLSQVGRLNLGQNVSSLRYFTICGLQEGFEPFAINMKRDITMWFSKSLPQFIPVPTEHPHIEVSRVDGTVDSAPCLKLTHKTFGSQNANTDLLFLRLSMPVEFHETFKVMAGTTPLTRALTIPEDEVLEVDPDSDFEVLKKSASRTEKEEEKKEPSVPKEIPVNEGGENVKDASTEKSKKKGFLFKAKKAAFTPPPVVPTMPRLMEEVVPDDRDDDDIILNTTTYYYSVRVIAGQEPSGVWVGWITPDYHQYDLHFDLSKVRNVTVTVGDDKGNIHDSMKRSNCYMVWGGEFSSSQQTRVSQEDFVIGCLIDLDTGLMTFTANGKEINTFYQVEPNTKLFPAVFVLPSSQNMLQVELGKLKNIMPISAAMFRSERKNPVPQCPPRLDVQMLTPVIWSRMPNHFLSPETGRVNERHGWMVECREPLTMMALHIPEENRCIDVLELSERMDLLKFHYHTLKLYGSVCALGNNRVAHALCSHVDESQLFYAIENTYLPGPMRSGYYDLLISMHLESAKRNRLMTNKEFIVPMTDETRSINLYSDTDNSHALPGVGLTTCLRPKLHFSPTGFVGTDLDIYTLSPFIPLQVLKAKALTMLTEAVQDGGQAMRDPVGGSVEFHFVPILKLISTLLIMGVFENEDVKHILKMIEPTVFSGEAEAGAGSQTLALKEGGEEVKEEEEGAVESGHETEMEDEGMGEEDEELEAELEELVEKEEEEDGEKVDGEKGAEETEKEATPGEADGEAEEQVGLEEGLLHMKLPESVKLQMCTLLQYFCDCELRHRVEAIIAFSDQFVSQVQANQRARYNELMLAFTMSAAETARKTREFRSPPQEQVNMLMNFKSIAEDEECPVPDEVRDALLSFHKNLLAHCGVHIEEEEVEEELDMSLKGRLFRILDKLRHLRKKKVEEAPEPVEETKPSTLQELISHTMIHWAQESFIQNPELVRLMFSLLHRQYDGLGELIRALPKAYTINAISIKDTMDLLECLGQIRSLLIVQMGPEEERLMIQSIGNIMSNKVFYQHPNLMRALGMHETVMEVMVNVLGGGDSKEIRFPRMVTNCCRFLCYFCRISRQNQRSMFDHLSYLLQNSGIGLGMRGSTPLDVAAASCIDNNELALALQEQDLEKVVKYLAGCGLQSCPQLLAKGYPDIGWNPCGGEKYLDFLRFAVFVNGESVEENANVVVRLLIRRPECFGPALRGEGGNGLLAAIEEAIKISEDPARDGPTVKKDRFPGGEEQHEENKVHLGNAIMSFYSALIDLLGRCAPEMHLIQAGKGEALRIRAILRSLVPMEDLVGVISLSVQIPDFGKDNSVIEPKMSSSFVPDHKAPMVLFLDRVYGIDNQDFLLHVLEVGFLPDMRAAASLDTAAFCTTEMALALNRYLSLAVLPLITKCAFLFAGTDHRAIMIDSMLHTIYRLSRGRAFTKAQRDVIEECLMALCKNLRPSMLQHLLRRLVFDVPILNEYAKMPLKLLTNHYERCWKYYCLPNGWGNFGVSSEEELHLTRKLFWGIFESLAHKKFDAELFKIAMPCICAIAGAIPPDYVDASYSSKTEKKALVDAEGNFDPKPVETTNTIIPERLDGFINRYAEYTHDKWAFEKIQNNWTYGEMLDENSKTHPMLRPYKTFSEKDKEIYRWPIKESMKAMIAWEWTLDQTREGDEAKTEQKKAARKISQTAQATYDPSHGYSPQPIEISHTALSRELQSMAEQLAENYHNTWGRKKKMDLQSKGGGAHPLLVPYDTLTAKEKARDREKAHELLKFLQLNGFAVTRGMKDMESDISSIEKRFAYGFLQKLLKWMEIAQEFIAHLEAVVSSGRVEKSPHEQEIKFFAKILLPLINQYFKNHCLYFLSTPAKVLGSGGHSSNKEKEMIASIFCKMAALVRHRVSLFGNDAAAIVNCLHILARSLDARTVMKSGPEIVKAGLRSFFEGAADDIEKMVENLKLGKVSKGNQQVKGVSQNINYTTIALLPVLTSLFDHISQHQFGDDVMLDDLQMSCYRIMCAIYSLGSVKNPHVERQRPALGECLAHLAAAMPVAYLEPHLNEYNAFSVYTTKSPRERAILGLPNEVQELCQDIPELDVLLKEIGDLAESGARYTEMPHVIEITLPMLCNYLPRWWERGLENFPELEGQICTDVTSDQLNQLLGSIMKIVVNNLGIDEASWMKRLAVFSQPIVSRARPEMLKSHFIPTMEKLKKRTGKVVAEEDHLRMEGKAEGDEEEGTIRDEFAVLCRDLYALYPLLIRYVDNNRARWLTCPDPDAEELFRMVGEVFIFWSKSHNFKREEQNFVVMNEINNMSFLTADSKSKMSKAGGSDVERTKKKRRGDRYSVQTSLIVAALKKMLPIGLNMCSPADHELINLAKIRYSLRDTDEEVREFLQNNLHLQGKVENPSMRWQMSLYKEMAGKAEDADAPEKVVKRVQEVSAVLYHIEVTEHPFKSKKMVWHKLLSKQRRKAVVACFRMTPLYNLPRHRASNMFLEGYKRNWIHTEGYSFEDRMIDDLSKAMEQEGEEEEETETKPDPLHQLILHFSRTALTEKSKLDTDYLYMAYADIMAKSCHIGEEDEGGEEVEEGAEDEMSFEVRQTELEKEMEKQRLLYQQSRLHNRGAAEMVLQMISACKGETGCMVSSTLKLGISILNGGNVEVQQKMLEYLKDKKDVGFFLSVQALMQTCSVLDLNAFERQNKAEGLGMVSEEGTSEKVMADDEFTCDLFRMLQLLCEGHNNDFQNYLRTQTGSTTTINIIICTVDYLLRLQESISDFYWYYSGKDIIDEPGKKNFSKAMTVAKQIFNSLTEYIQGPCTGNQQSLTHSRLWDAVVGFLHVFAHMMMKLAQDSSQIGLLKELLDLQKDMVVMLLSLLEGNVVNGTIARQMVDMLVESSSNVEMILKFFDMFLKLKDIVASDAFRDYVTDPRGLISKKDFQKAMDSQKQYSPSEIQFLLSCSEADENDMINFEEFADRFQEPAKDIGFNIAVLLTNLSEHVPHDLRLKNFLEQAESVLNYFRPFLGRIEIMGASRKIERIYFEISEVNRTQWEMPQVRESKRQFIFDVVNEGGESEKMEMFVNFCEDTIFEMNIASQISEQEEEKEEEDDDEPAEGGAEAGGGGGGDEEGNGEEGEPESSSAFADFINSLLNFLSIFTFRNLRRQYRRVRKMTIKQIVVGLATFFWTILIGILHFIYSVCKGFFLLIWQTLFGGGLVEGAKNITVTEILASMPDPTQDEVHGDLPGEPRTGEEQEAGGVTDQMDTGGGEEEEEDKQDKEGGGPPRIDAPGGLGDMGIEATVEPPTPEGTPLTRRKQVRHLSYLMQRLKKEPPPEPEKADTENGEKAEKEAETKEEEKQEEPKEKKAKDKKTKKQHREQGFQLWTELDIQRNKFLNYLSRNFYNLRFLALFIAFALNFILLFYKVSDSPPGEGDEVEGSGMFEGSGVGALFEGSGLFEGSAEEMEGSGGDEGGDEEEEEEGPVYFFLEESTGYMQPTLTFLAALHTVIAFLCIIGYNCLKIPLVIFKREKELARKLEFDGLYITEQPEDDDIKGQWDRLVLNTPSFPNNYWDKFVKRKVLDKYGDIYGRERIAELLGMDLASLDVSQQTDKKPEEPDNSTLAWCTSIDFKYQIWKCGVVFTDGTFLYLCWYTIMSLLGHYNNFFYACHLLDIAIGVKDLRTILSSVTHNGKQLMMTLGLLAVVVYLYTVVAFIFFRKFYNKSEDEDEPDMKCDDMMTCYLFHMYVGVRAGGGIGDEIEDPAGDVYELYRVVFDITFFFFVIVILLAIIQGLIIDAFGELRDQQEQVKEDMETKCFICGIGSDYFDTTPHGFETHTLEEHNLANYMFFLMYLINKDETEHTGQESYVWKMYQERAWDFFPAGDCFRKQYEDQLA

Row | Structure (SMILES) | EC50 ([1]; single compound) [nM] | Mammal RPF [2] | Mammal EC2X (μM) [3] | Comparison (Ratio) [1] | Log-Probit Slope [1, 5] | Bmax ([1]; (−) inactive) [pmol/mg] | Fish RPF ([1]; (−) inactive) | EC50 [1, 6] [nM] | Bmax (pmol/mg) ([1]; (−) inactive) | activity toward RyR1 [1] | Mammal EC2X [4] [µM] | activity toward the RyR1 in mammals [4] | receptor activity, % of baseline ([1]; at 20 μM (data not shown)) | Log-Probit Slope ([1]; parameter determined using activating concentrations only) | EC20 ([1]; read-out: Fish Normalized Q20 (μM)) [µM] | Emax ([1]; read-out: Maximum Response (% of Control)) [%]
1 | Brc1ccc(Oc2cc(Br)ccc2Br)c(Br)c1 [PBDE49] | 3480 |  |  |  |  |  |  |  |  |  |  |  |  |  |  | 
2 | Clc1cccc(-c2cccc(Cl)c2Cl)c1 [PCB 20] |  | 0.11 | 2 ^c μM | 0.05 | 2.83 ± 0.10 | 0.34 ± 0.02 | 0.01 | 1800 |  |  |  |  |  |  |  | 
3 | Clc1ccc(-c2ccc(Cl)cc2Cl)cc1 [PCB 28] |  | 0.04 | 5 ^c μM |  |  |  |  | > 20000 | - | inactive |  |  |  |  |  | 
4 | Clc1ccc(Cl)c(-c2cccc(Cl)c2Cl)c1 [PCB 44] |  | 0.28 | 0.8 ^c μM | 0.29 | 4.20 ± 0.10 | 0.50 ± 0.03 | 0.08 | 4500 |  |  |  |  |  |  |  | 
5 | Clc1ccc(Cl)c(-c2cc(Cl)ccc2Cl)c1 [PCB 52] |  | 0.45 |  | 0.69 | 2.66 ± 0.09 | 0.77 ± 0.05 | 0.31 | 2940 |  |  | 0.49 |  |  |  |  | 
6 | Clc1ccc(-c2ccc(Cl)c(Cl)c2)c(Cl)c1 [PCB 66] |  | 0.09 |  | 0.44 | 2.93 ± 0.00 | 0.42 ± 0.02 | 0.04 | 1160 |  |  | 2.38 |  |  |  |  | 
7 | Clc1ccc(-c2ccc(Cl)c(Cl)c2)cc1Cl [PCB 77] |  | 0.04 |  |  |  |  |  | > 20000 | - | negligible impact; also recorded: inactive | 5.00 |  |  |  |  | 
8 | Clc1ccc(Cl)c(-c2c(Cl)ccc(Cl)c2Cl)c1 [PCB 95] |  | 1.00 |  | 1.00 | 2.15 ± 0.05 | 0.95 ± 0.04 | 1.00 | 1060 |  |  | 0.22 |  |  |  |  | 
9 | Clc1ccc(-c2cc(Cl)c(Cl)cc2Cl)c(Cl)c1 [PCB 99] |  | 0.08 |  | 0.35 | 2.30 ± 0.05 | 0.61 ± 0.03 | 0.03 | 3590 |  |  | 2.80 |  |  |  |  | 
10 | Clc1ccc(Cl)c(-c2cc(Cl)c(Cl)cc2Cl)c1 [PCB 101] |  | 0.26 |  | 1.64 | 1.83 ± 0.04 | 0.64 ± 0.04 | 0.42 | 1980 |  |  | 0.86 |  |  |  |  | 
11 | Clc1ccc(-c2c(Cl)ccc(Cl)c2Cl)cc1Cl [PCB 110] |  | 0.19 |  |  | 2.60 ± 0.01 | 0.48 ± 0.03 |  | 1080 |  |  | 1.13 |  |  |  |  | 
12 | Clc1ccc(-c2cc(Cl)c(Cl)c(Cl)c2)cc1Cl [PCB 126] |  |  |  |  |  |  |  |  |  |  |  | inactive |  |  |  | 
13 | Clc1ccc(-c2c(Cl)ccc(Cl)c2Cl)c(Cl)c1Cl [PCB 132] |  | 0.24 |  | 0.10 |  | 0.46 ± 0.02 | 0.02 | 1320 |  |  | 0.91 |  | 88 % of baseline | 1.70 ± 0.04 ^a |  | 
14 | Clc1ccc(Cl)c(-c2c(Cl)ccc(Cl)c2Cl)c1Cl [PCB 136] |  | 0.96 |  | 0.63 | 3.16 ± 0.14 | 0.96 ± 0.04 | 0.60 | 1300 |  |  | 0.23 |  |  |  |  | 
15 | Clc1cc(Cl)c(-c2c(Cl)ccc(Cl)c2Cl)cc1Cl [PCB 149] |  | 0.67 |  | 1.45 | 3.40 ± 0.08 | 0.76 ± 0.04 | 0.96 | 810 |  |  | 0.33 |  |  |  |  | 
16 | Clc1ccc(Cl)c(-c2c(Cl)c(Cl)cc(Cl)c2Cl)c1 [PCB 151] |  | 0.44 |  | 0.45 | 1.91 ± 0.04 | 0.77 ± 0.04 | 0.20 | 2760 |  |  | 0.50 |  |  |  |  | 
17 | Clc1cc(Cl)c(-c2cc(Cl)c(Cl)cc2Cl)cc1Cl [PCB 153] |  | 0.18 |  | 0.41 | 2.25 ± 0.05 | 0.54 ± 0.02 | 0.07 | 5750 |  |  | 1.21 |  |  |  |  | 
18 | Clc1ccc(-c2cc(Cl)c(Cl)c(Cl)c2Cl)c(Cl)c1Cl [PCB 170] |  | 0.30 |  |  |  |  |  | > 20000 | - | inactive | 0.73 |  |  |  |  | 
19 | Clc1cc(Cl)c(-c2cc(Cl)c(Cl)c(Cl)c2Cl)cc1Cl [PCB 180] |  | 0.23 |  | 0.17 | 1.84 ± 0.06 | 0.40 ± 0.03 |  |  |  |  | 0.96 |  |  |  | 11.2 | 132 ± 9.87
20 | Clc1cc(Cl)c(-c2c(Cl)cc(Cl)c(Cl)c2Cl)cc1Cl [PCB 183] |  | 0.40 |  | 0.16 | 1.58 ± 0.09 | 0.42 ± 0.03 | 0.06 | 1820 |  |  | 0.55 |  |  |  |  | 
21 | Clc1cc(Cl)c(-c2c(Cl)c(Cl)cc(Cl)c2Cl)cc1Cl [PCB 187] |  | 0.38 |  | 0.16 | 3.05 ± 0.07 | 0.45 ± 0.02 | 0.06 | 1300 |  |  | 0.58 |  |  |  |  | 
22 | Clc1cc(-c2cc(Cl)c(Cl)c(Cl)c2Cl)c(Cl)c(Cl)c1Cl [PCB 194] |  | 0.44 | 0.5 ^c μM | 0.09 | 8.94 ± 0.34 | 0.36 ± 0.02 | 0.04 | 1270 |  |  |  |  |  |  |  | 

— PMC3813431 (Aquatic toxicology (Amsterdam, Netherlands), 2013)
